From the C3SDB collision cross section collection
Several values for one entry are separate records, joined by “and”; a condition that tells them apart may be missing. Equal entries are not always repeated.

Key:
[1] = instrument: DT, single field
[2] = [M+Na]+; instrument: DT; stepped-field
[3] = instrument: DT, single field, calibrated with Agilent tune mix (Agilent)

Row | collision cross section (N2) ([1]; [M+NH4]+) | collision cross section (N2) ([1]; [M+Na]+) | collision cross section (N2) ([3]; [M+NH4]+) | further results | SMILES
1 | – | – | – | collision cross section (N2) ([1]; [M+H]+): 298.58 Å²; collision cross section (N2) [2]: 301.7 Å²; collision cross section (N2) ([3]; [M+H]+): 298.4 Å² | CCCCCCCCCCCCC=CC[C@@H](O)[C@H](COP(=O)([O-])OCC[N+](C)(C)C)NC(=O)CC=CCCCCCCCCCCCCCCCCCC [SM(40:2)]
2 | 297.58 Å² and 299.43 Å² | 297 Å² and 298.89 Å² | 297.1 Å² | – | CCCCC/C=C\C/C=C\C/C=C\CCCCCCCCC(=O)OC[C@@H](COC(=O)CCCCCCCCCCC)OC(=O)CCCCCCCCCCC [TG(46:3)]
3 | 304.89 Å² and 307.09 Å² | 304.27 Å² and 306.32 Å² | 304.8 Å² | – | CCCCC/C=C\C/C=C\C/C=C\CCCCCCCCC(=O)OC[C@@H](COC(=O)CCCCCCCCCCCC)OC(=O)CCCCCCCCCCCC [TG(48:3)]
4 | – | 311.82 Å² and 313.77 Å² | 313 Å² | – | CCCCCCCCC/C=C\CCCCCCCC(=O)OC[C@@H](COC(=O)CCCCCCCCCCCCCC)OC(=O)CCCCCCCCCCCCCC [TG(49:1)]
5 | – | 309.35 Å² and 311.09 Å² | 310.5 Å² | – | CCCC/C=C\CCCCCCCC(=O)OC[C@H](COC(=O)CCCCCCCCCCCCCCCCCCCC)OC(=O)CCCCCCC/C=C\CCCC [TG(49:2)]
6 | – | 308.43 Å² and 310.33 Å² and 312.33 Å² | 309.5 Å² | – | CCCCC/C=C\C/C=C\C/C=C\C/C=C\CCCCCC(=O)OC[C@@H](COC(=O)CCCCCCCCCCCCC)OC(=O)CCCCCCCCCCCCC [TG(50:4)]
7 | – | 314.5 Å² and 316.78 Å² | 317.6 Å² | – | CCCCC/C=C\C/C=C\C/C=C\C/C=C\CCCC(=O)OC[C@@H](COC(=O)CCCCCCCCCCCCC)OC(=O)CCCCCCCCCCCCCCCCC [TG(52:4)]
8 | 318.08 Å² and 320.09 Å² and 324.43 Å² | 319.39 Å² | 319.5 Å² | – | CCCCC/C=C\C/C=C\C/C=C\C/C=C\CCCC(=O)OC[C@@H](COC(=O)CCCCCCCCCCCCCC)OC(=O)CCCCCCCCCCCCCCCCC [TG(53:4)]
9 | 317.23 Å² and 320 Å² | 316.19 Å² | 318 Å² | – | CC/C=C\C/C=C\C/C=C\C/C=C\CCCCC(=O)OC[C@@H](COC(=O)CCCCCCCCCCCCCCCCC)OC(=O)CCCC/C=C\C/C=C\C/C=C\CCCCC [TG(54:7)]
10 | – | 326.57 Å² and 325 Å² | 328.3 Å² | – | CC/C=C\C/C=C\C/C=C\C/C=C\C/C=C\CCCCCC(=O)OC[C@@H](COC(=O)CCCCCCC/C=C\CCCCC)OC(=O)CCCCCCCCCCCCCCCCCC [TG(56:6)]
11 | 338.57 Å² and 340.8 Å² | – | 334.6 Å² | – | CCCCCCCCCC/C=C\CCCCCCCCCC(=O)OC[C@@H](COC(=O)CCCCCCCCCCCC)OC(=O)CCCCCCCCC/C=C\CCCCCCCCCC [TG(57:2)]
12 | 336.68 Å² and 339.26 Å² | – | 332.9 Å² | – | CCCCC/C=C\C/C=C\CCCCCCCCCCCC(=O)OC[C@@H](COC(=O)CCCCCCCCCCCC)OC(=O)CCCCCCCCC/C=C\CCCCCCCCCC [TG(57:3)]
13 | 334.57 Å² and 337.31 Å² | – | – | – | CCCCC/C=C\C/C=C\C/C=C\CCCCC(=O)O[C@H](COC(=O)CCCCCCC/C=C\CCCCCCC)COC(=O)CCCCCCCCCCCCCCCCCCCCC [TG(57:4)]
14 | 341.17 Å² and 343.91 Å² and 338.53 Å² | – | 337.8 Å² | – | CCCCCCCCCC/C=C\CCCCCCCCCC(=O)OC[C@@H](COC(=O)CCCCCCCCCCCCC)OC(=O)CCCCCCCCC/C=C\CCCCCCCCCC [TG(58:2)]
15 | 333.74 Å² | – | – | – | CC/C=C\C/C=C\C/C=C\C/C=C\C/C=C\C/C=C\CCC(=O)OC[C@@H](COC(=O)CCCCCCCCCCCCCCC)OC(=O)CCCCCCCCCCCCCCCCCCC [TG(58:6)]
16 | 346.03 Å² | – | – | – | CCCCCCCCC/C=C\CCCCCCCC(=O)OC[C@H](COC(=O)CCCCCCCCCCCCCCCCCCCCC)OC(=O)CCCCCCC/C=C\CCCCCCCCC [TG(60:2)]
17 | 344.73 Å² and 347.66 Å² and 343.58 Å² | – | – | – | CCCCCC/C=C\CCCCCCCC(=O)OC[C@H](COC(=O)CCCCCCCCC/C=C\CCCCCCCCCC)OC(=O)CCCCCCCCC/C=C\CCCCCCCCCC [TG(60:3)]
18 | 342.69 Å² and 347.03 Å² | – | 340.7 Å² | – | CCCCC/C=C\C/C=C\CCCCCCCCCC(=O)O[C@H](COC(=O)CCCCCCC/C=C\CCCCCCCC)COC(=O)CCCCCCCCCCC/C=C\CCCCCCCC [TG(60:4)]
